For data set [1], the system named is CYP1A1 protein in primary human hepatocytes. The data set is described as follows: CYP1A1 protein in primary human hepatocytes. The settings on record: four different primary human hepatocytes cultures.
Data set [2] addresses T1, AhR (Cavia porcellus, UniProt Q6J287).
T1 sequence (Q6J287 1-846): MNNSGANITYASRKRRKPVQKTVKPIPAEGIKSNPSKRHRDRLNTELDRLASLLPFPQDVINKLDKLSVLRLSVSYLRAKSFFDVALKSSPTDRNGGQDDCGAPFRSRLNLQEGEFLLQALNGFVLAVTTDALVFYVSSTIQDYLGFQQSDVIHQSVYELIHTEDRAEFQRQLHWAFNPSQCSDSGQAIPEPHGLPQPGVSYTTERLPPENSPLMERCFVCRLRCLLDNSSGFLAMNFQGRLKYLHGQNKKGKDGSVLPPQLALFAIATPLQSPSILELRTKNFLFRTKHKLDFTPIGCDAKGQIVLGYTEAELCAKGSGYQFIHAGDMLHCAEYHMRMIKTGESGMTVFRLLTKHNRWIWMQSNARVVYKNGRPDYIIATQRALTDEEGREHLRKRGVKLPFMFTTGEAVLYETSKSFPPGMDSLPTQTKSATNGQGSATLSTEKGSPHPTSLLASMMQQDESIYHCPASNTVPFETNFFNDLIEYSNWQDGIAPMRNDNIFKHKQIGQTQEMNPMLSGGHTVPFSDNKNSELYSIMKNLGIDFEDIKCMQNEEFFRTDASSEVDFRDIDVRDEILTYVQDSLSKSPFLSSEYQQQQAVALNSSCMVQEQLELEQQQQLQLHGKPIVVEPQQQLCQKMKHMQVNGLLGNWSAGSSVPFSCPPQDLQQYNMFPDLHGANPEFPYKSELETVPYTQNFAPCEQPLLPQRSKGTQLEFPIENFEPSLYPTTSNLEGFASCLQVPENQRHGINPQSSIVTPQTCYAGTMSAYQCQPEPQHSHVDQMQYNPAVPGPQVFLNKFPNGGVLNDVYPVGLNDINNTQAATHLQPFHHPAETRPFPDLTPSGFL
The settings on record: any tested concentration, 2 nM [3H]TCDD.

Another data set concerns CYP1A1 mRNA. The data set is described as follows: CYP1A1 mRNA expression in primary human hepatocytes. The settings on record: human. The data set is classed as cell-based.
In data set [3] the test system is CYP1A1 mRNA in primary human hepatocytes. Described as above. The data set is classed as cell-based. The settings on record: four different primary human hepatocytes cultures.
The subject of data set [4] is CYP1A1 mRNA in LS174T cells. The experiment in a line: CYP1A1 mRNA expression in LS174T cells. The settings on record: 50 µM, 24 h.
Data set [5] deals with T2, AhR (Homo sapiens, UniProt P35869).
T2 sequence (P35869 11-848): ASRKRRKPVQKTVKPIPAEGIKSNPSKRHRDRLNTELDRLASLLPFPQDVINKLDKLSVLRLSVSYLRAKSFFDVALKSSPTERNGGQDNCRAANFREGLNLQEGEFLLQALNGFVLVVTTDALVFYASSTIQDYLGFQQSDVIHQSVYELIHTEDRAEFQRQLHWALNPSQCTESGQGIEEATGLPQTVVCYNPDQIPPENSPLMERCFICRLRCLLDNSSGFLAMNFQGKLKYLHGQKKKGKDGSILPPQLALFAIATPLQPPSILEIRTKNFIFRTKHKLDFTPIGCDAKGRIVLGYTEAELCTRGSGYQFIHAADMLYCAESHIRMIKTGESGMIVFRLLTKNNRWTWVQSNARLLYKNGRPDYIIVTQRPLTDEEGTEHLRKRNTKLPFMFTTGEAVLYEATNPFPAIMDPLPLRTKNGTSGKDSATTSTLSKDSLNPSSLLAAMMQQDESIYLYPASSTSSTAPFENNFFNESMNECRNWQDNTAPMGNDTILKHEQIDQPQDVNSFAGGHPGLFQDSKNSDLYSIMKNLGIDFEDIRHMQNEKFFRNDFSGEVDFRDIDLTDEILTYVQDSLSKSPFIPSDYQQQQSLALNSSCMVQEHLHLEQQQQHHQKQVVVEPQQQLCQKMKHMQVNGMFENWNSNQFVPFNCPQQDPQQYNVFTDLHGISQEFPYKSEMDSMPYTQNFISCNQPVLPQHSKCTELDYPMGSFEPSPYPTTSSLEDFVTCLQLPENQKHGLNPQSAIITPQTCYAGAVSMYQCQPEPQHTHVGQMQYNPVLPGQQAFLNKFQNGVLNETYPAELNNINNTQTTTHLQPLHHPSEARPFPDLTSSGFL
The experiment in a line: Gene reporter assay, transcriptional activity of AhR in AZ-AHR reporter cells. The settings on record: 10 µM and 50 µM, 24 h. In general terms: In a reporter assay the amount or activity of a reporter protein is the signal.

The subject of data set [6] is CYP1A1 mRNA in HepG2 cells. The data set is described as follows: CYP1A1 mRNA expression in HepG2 cells. The settings on record: HepG2, 50 µM, 24 h.
Where [7] appears, read: male, primary human hepatocytes (culture LH45).
[8] abbreviates: male, primary human hepatocytes (culture LH46).

One may read the fold induction as the signal under treatment as a multiple of the control signal.

For the compound `OC[C@H]1O[C@@H](Oc2cc3c(O[C@@H]4O[C@H](CO)[C@@H](O)[C@H](O)[C@H]4O)cc(O)cc3[o+]c2-c2ccc(O)c(O)c2)[C@H](O)[C@@H](O)[C@@H]1O` [CYA-3, cyanidin-3,5-di-O-glucoside chloride], in data set [1], the “induction of CYP1A1 protein” value is “Neither compound induced”. Besides, on AhR [2], the “displacement of radiolabelled TCDD from AhR” value is “did not displace”. Further, the fold induction at 24 h, 50 µM was found to be 0.13 ± 0.03 with CYP1A1 mRNA (primary human hepatocytes (culture LH48 as printed)); 0.48 ± 0.07 in the data set on CYP1A1 mRNA (setting [7]); 2.59 ± 0.09 in the data set with CYP1A1 mRNA (setting [8]); 0.45 ± 0.03 with CYP1A1 mRNA (male, primary human hepatocytes (culture LH47)). Besides, the fold induction at 24 h, 10 µM in the data set with CYP1A1 mRNA (setting [7]) was found to be 0.68 ± 0.2; in the data set on CYP1A1 mRNA (setting [8]) it was 2.21 ± 0.16. Moreover, the “induction of CYP1A1 mRNA” value in data set [3] is “Neither compound induced”. For the same compound, the “level of CYP1A1 mRNA” value in data set [4] and in data set [6] was “significantly increased” in each case. On AhR [5], the “induction of luciferase activity” value is given as “concentration-dependent induction”.
